Where only a bound is given, the exact number is not on record here.

The values that follow come from US12391737B2, “Soluble NPY2 receptor agonists” (Boehringer Ingelheim International GmbH, priority 2020, dated 2025).

Data set [1] concerns the target T1, Human Neuropeptide Y2 Receptor (Homo sapiens, UniProt P49146).
T1 construct: purchased CHEMICON HTS066M
T1 sequence (P49146 1-381): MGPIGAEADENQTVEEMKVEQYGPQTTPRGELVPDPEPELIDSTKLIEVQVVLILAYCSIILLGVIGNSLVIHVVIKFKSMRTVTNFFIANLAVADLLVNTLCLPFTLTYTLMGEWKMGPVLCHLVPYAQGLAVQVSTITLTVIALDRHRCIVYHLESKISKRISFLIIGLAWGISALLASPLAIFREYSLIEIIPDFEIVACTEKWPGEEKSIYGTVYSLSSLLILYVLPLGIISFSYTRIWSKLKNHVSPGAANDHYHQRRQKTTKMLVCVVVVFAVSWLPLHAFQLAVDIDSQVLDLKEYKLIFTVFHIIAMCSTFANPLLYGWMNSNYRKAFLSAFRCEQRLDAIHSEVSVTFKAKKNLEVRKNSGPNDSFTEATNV
Put plainly: Radioligand binding competition assay (RLB). As to conditions: Table 3, 125I-PYY(1-36) competition; read-out: Ki. A digest of the protocol:
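Peptides were serially diluted from 1 mM DMSO stocks and competed for radioligand binding to receptor membranes (0.5 μg/well) over 2 h at room temperature, pH 7.4 HEPES buffer. Bound radioactivity on filters was counted by scintillation, and IC50 was derived by nonlinear regression.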

Data set [2] is described as follows: Solubility determination. As to conditions: for Sol6: pH 6; for Sol7: pH 7. A digest of the protocol: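 Sample: TFA-salt peptide at 10 mg/ml target in 0.1 M Na diphosphate, pH 6.4 or 7.0, shaken 2 h RT, filtered, diluted to 1 mg/ml.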
The target in data set [3] is T2, human NPY5 receptor (hY5R) (Homo sapiens, UniProt Q15761).
T2 sequence (Q15761 1-445): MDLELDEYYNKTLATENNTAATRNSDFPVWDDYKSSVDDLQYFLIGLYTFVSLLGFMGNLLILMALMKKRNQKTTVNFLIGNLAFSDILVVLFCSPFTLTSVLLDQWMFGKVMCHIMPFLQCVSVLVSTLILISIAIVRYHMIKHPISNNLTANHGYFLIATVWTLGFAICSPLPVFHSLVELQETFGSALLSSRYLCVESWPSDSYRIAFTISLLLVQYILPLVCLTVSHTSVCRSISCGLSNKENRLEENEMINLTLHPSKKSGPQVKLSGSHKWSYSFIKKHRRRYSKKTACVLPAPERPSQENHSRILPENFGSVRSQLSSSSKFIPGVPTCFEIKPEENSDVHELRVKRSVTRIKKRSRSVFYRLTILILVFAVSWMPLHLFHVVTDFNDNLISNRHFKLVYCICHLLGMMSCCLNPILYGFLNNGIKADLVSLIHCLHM
Put plainly: HTRF cAMP Gi assay, hY5R. (In general: TR-FRET usually uses a lanthanide donor and a delayed reading to cut background.)
Protocol: Briefly, the production of intracellular cAMP will generate a competition between unlabeled cAMP and exogenously added d2-cAMP for anti-cAMP antibodies conjugated to cryptate. CHO-K1 cells stably expressing the human NPY1, NPY2, NPY4 and NPY5 receptors were used with the cells brought to life from a frozen stock immediately before assay performance. 2000 cells per well were applied for all four NPY receptor subtype assays. A 384-well format was used applying a total volume of 20 μl using 5 μl cells, 2.5 μl peptide agonist, 2.5 μl forskolin and 5 μl of each of the fluorophores. […] Concentration-response evaluation of compounds was performed with 11 concentrations of agonist peptides (covering 3 decades). EC50 values were calculated by nonlinear regression using sigmoid concentration-response with variable slope.

Regarding `CC[C@H](C)[C@H](NC(=O)[C@H](CCC(=O)O)NC(=O)[C@H](CCC(=O)O)NC(=O)[C@@H]1CCCN1C(=O)[C@H](CO)NC(=O)[C@H](C)NC(=O)[C@H](CC(=O)O)NC(=O)[C@H](C)NC(=O)[C@H](CCC(=O)O)NC(=O)[C@@H]1CCCN1C(=O)[C@H](CCCCNC(=O)CCCCCNC(=O)CC[C@H](NC(=O)CCCCCCCCCCCCCCCCC(=O)O)C(=O)O)NC(=O)[C@H](CCC(=O)O)NC(=O)[C@@H]1CCCN1C(=O)[C@H](C)NC(=O)CC(C)C)C(=O)N[C@@H](CCC(N)=O)C(=O)N[C@@H](CCCNC(=N)N)C(=O)N[C@@H](Cc1ccc(O)cc1)C(=O)N[C@@H](Cc1ccc(O)cc1)C(=O)N[C@H](C(=O)N[C@@H](CO)C(=O)N[C@@H](CC(C)C)C(=O)N[C@@H](CCCNC(=N)N)C(=O)N[C@@H](Cc1c[nH]cn1)C(=O)N[C@@H](Cc1ccc(O)cc1)C(=O)N[C@@H](Cc1ccc(O)cc1)C(=O)N[C@@H](CC(N)=O)C(=O)N[C@@H](Cc1c[nH]c2ccccc12)C(=O)N[C@@H](CC(C)C)C(=O)N[C@H](C(=O)N[C@@H](CCCNC(=N)N)C(=O)N[C@@H](CCC(N)=O)C(=O)N[C@@H](CCCNC(=N)N)C(=O)N[C@@H](Cc1ccc(O)cc1)C(N)=O)[C@@H](C)O)C(C)C` [Compound 140, N{alpha-4}-(3-methylbutanoyl)-N{epsilon-7}-(6-[(4S)-4-carboxy-4-(17-carboxyheptadecanamido)butanamido]hexanoyl)-[4A,7K,9E,10A,17I,18Q,22V,28Y,30W,31L]-hPYY(4-36)], in data set [1], the Ki (commonly the dissociation constant of the complex between target and ligand, obtained from inhibition or displacement) is 1.41 nM. In addition, in data set [2], the “Sol6” value is 9.9 mg/mL and the “Sol7” value was determined as 9.3 mg/mL. Further, in data set [3], the EC50 (commonly the concentration that produces a half-maximal response) is > 5 µM.

As for `CC(C)CC(=O)N[C@@H](C)C(=O)N1CCC[C@H]1C(=O)N[C@@H](CCC(=O)O)C(=O)N[C@@H](CCCCNC(=O)CCCCCNC(=O)CC[C@H](NC(=O)CCCCCCCCCCCCCCCCC(=O)O)C(=O)O)C(=O)N1CCC[C@H]1C(=O)N[C@@H](CCC(=O)O)C(=O)N[C@@H](CCC(=O)O)C(=O)N[C@@H](CC(=O)O)C(=O)N[C@@H](C)C(=O)N[C@@H](CO)C(=O)N1CCC[C@H]1C(=O)N[C@@H](CCC(=O)O)C(=O)N[C@@H](CCC(=O)O)C(=O)N[C@@H](CC(C)C)C(=O)N[C@@H](CCC(N)=O)C(=O)N[C@@H](CCCNC(=N)N)C(=O)N[C@@H](Cc1ccc(O)cc1)C(=O)N[C@@H](Cc1ccc(O)cc1)C(=O)N[C@H](C(=O)N[C@@H](CO)C(=O)N[C@@H](CC(C)C)C(=O)N[C@@H](CCCNC(=N)N)C(=O)N[C@@H](Cc1c[nH]cn1)C(=O)N[C@@H](Cc1ccc(O)cc1)C(=O)N[C@@H](Cc1ccc(O)cc1)C(=O)N[C@@H](CC(N)=O)C(=O)N[C@@H](Cc1c[nH]c2ccccc12)C(=O)N[C@@H](CC(C)C)C(=O)N[C@H](C(=O)N[C@@H](CCCNC(=N)N)C(=O)N[C@@H](CCC(N)=O)C(=O)N[C@@H](CCCNC(=N)N)C(=O)N[C@@H](Cc1ccc(O)cc1)C(N)=O)[C@@H](C)O)C(C)C` [Compound 79, N{alpha-4}-(3-methylbutanoyl)-N{epsilon-7}-(6-[(4S)-4-carboxy-4-(17-carboxyheptadecanamido)butanamido]hexanoyl)-[4A,7K,9E,18Q,22V,28Y,30W,31L]-hPYY(4-36)], the Ki in data set [1] amounted to 1.54 nM. In data set [2], the “Sol6” value was 10.0 mg/mL and the “Sol7” value stood at 10.0 mg/mL. Moreover, the EC50 in data set [3] was > 5 µM.

As to `CC[C@H](C)[C@H](NC(=O)[C@H](CCC(=O)O)NC(=O)[C@H](CCC(=O)O)NC(=O)[C@@H]1CCCN1C(=O)[C@H](CO)NC(=O)[C@H](C)NC(=O)[C@H](CC(=O)O)NC(=O)[C@H](CCC(=O)O)NC(=O)[C@@H]1CCCN1C(=O)[C@@H]1CCCN1C(=O)[C@H](CCCCNC(=O)CCCCCNC(=O)CC[C@H](NC(=O)CCCCCCCCCCCCCCCCC(=O)O)C(=O)O)NC(=O)[C@H](CCC(=O)O)NC(=O)[C@@H]1CCCN1C(=O)[C@H](C)NC(=O)CC(C)C)C(=O)N[C@@H](CCC(N)=O)C(=O)N[C@@H](CCCNC(=N)N)C(=O)N[C@@H](Cc1ccc(O)cc1)C(=O)N[C@@H](Cc1ccc(O)cc1)C(=O)N[C@H](C(=O)N[C@@H](CO)C(=O)N[C@@H](CC(C)C)C(=O)N[C@@H](CCCNC(=N)N)C(=O)N[C@@H](Cc1c[nH]cn1)C(=O)N[C@@H](Cc1ccc(O)cc1)C(=O)N[C@@H](Cc1ccc(O)cc1)C(=O)N[C@@H](CC(N)=O)C(=O)N[C@@H](Cc1c[nH]c2ccccc12)C(=O)N[C@@H](CC(C)C)C(=O)N[C@H](C(=O)N[C@@H](CCCNC(=N)N)C(=O)N[C@@H](CCC(N)=O)C(=O)N[C@@H](CCCNC(=N)N)C(=O)N[C@@H](Cc1ccc(O)cc1)C(N)=O)[C@@H](C)O)C(C)C` [Compound 172, N{alpha-4}-(3-methylbutanoyl)-N{epsilon-7}-(6-[(4S)-4-carboxy-4-(17-carboxyheptadecanamido)butanamido]hexanoyl)-[4A,7K,9P,17I,18Q,22V,28Y,30W,31L]-hPYY(4-36)], the Ki in data set [1] came out at 0.81 nM. In data set [2], the “Sol6” value is 10.0 mg/mL and the “Sol7” value is >10.0 mg/mL. The EC50 in data set [3] is > 5 µM.

`CC(C)CC(=O)N[C@@H](C)C(=O)N1CCC[C@H]1C(=O)N[C@@H](CCC(=O)O)C(=O)N[C@@H](CCCCNC(=O)CCCCCNC(=O)CC[C@H](NC(=O)CCCCCCCCCCCCCCCCC(=O)O)C(=O)O)C(=O)N1CCC[C@H]1C(=O)N[C@@H](CCC(=O)O)C(=O)N[C@@H](CCC(=O)O)C(=O)N[C@@H](CCC(=O)O)C(=O)N[C@@H](C)C(=O)N[C@@H](CO)C(=O)N1CCC[C@H]1C(=O)N[C@@H](CCC(=O)O)C(=O)N[C@@H](CCC(=O)O)C(=O)N[C@@H](CC(C)C)C(=O)N[C@@H](CCC(N)=O)C(=O)N[C@@H](CCCNC(=N)N)C(=O)N[C@@H](Cc1ccc(O)cc1)C(=O)N[C@@H](Cc1ccc(O)cc1)C(=O)N[C@H](C(=O)N[C@@H](CO)C(=O)N[C@@H](CC(C)C)C(=O)N[C@@H](CCCNC(=N)N)C(=O)N[C@@H](Cc1c[nH]cn1)C(=O)N[C@@H](Cc1ccc(O)cc1)C(=O)N[C@@H](Cc1ccc(O)cc1)C(=O)N[C@@H](CC(N)=O)C(=O)N[C@@H](Cc1c[nH]c2ccccc12)C(=O)N[C@@H](CC(C)C)C(=O)N[C@H](C(=O)N[C@@H](CCCNC(=N)N)C(=O)N[C@@H](CCC(N)=O)C(=O)N[C@@H](CCCNC(=N)N)C(=O)N[C@@H](Cc1ccc(O)cc1)C(N)=O)[C@@H](C)O)C(C)C` [Compound 23, N{alpha-4}-(3-methylbutanoyl)-N{epsilon-7}-(6-[(4S)-4-carboxy-4-(17-carboxyheptadecanamido)butanamido]hexanoyl)[4A,7K,9E,11E,18Q,22V,28Y,30W,31L]-hPYY(4-36)]: in data set [1], the inhibition constant Ki was determined as 12.6 nM. Further, in data set [2], the “Sol6” value was 9.8 mg/mL and the “Sol7” value is 10.0 mg/mL. Besides, the EC50 in data set [3] was > 5 µM.

Take `CC[C@H](C)[C@H](NC(=O)[C@H](CCC(=O)O)NC(=O)[C@H](CCC(=O)O)NC(=O)[C@@H]1CCCN1C(=O)[C@H](CO)NC(=O)[C@H](C)NC(=O)[C@H](CC(=O)O)NC(=O)[C@H](CCC(=O)O)NC(=O)[C@H](CCC(=O)O)NC(=O)[C@H](C)NC(=O)[C@H](CCCCNC(=O)CCCCCNC(=O)CC[C@H](NC(=O)CCCCCCCCCCCCCCCCC(=O)O)C(=O)O)NC(=O)[C@H](CCC(=O)O)NC(=O)[C@@H]1CCCN1C(=O)[C@H](C)NC(=O)CC(C)C)C(=O)N[C@@H](CCC(N)=O)C(=O)N[C@@H](CCCNC(=N)N)C(=O)N[C@@H](Cc1ccc(O)cc1)C(=O)N[C@@H](Cc1ccc(O)cc1)C(=O)N[C@H](C(=O)N[C@@H](CO)C(=O)N[C@@H](CC(C)C)C(=O)N[C@@H](CCCNC(=N)N)C(=O)N[C@@H](Cc1c[nH]cn1)C(=O)N[C@@H](Cc1ccc(O)cc1)C(=O)N[C@@H](Cc1ccc(O)cc1)C(=O)N[C@@H](CC(N)=O)C(=O)N[C@@H](Cc1c[nH]c2ccccc12)C(=O)N[C@@H](CC(C)C)C(=O)N[C@H](C(=O)N[C@@H](CCCNC(=N)N)C(=O)N[C@@H](CCC(N)=O)C(=O)N[C@@H](CCCNC(=N)N)C(=O)N[C@@H](Cc1ccc(O)cc1)C(N)=O)[C@@H](C)O)C(C)C` [Compound 183, N{alpha-4}-(3-methylbutanoyl)-N{epsilon-7}-(6-[(4S)-4-carboxy-4-(17-carboxyheptadecanamido)butanamido]hexanoyl)-[4A,7K,8A,9E,17I,18Q,22V,28Y,30W,31L]-hPYY(4-36)]: in data set [1], the Ki was 18.8 nM. Moreover, in data set [2], the “Sol6” value is 8.4 mg/mL and the “Sol7” value is 8.7 mg/mL. The EC50 in data set [3] is > 5 µM.
